# Columns and labels:
# Type in all cases: biochemical
# VEGFR-1 (FLT 1) = molecular target: T1, VEGFR-1 (FLT 1) (Homo sapiens, UniProt P17948); test: Tyrosine kinase inhibition, mobility shift assay (MSA); settings: recombinant human kinase
# T1 construct: purchased Carna Biosciences Inc. 08-189
# Description: (§1) A test compound was dissolved in dimethyl sulfoxide to make a 10 mM solution, which was stored in a dark place at 4° C. until use.
# (§2) Protein tyrosine kinases (recombinant human kinases) used in the study were the following products from Carna Biosciences Inc. (Kobe, Japan).
# (§3) VEGFR-1 (FLT 1) (product number: 08-189) VEGFR-3 (FLT 4) (product number: 08-190) RON (product number: 08-152) RET (product number: 08-159) KIT (product number: 08-156)
# (§4) Kinase activity was measured in a mobility shift assay (MSA) method (J. Biomolecular Screening, 11, 359-368, 2006) using QuickScout Screening Assist™ (Carna Biosciences Inc., commercial kit), and enzyme-linked immunoassay (ELISA).
# (§5) 5 μl of the test substance solution obtained by dissolving or suspending in an assay buffer (20 mM Hepes, 0.01% Triton X-100, 1 mM dithiothreitol, pH 7.4) (4× final concentration) or 5 μl of a solvent (4% dimethyl sulfoxide-assay buffer) was dispensed into a polypropylene 384-well plate (Greiner Bio-One, product number 781280). Then, 5 μl of QuickScout Screening Assist™ MSA in an ATP/substrate/metal solution was added. Additionally, 10 μl of the kinase solution diluted with the assay buffer was added to initiate a reaction. For a blank, only 10 μl of the assay buffer was added. The kinase concentration and reaction conditions were in accordance with the protocol of QuickScout Screening Assist™ MSA. Then, the reaction was terminated by addition of 60 μl of a termination buffer of the QuickScout Screening Assist™ MSA, and the amount of a substrate (S) and a phosphorylated substrate (P) in the reaction solution were determined using LabChip3000 (Caliper Life Science, Massachusetts, U.S.A.) in accordance with the protocol of QuickScout Screening Assist™ MSA. The amounts of the S and P were represented by respective separated peak height. […] It was on the condition that the signal was determined as P/(P+S).
# VEGFR-3 (FLT 4) = molecular target: T2, VEGFR-3 (FLT 4) (Homo sapiens, UniProt P35916); test: as above; settings: recombinant human kinase
# T2 construct: purchased Carna Biosciences Inc. 08-190
# T2 sequence (P35916 25-1363): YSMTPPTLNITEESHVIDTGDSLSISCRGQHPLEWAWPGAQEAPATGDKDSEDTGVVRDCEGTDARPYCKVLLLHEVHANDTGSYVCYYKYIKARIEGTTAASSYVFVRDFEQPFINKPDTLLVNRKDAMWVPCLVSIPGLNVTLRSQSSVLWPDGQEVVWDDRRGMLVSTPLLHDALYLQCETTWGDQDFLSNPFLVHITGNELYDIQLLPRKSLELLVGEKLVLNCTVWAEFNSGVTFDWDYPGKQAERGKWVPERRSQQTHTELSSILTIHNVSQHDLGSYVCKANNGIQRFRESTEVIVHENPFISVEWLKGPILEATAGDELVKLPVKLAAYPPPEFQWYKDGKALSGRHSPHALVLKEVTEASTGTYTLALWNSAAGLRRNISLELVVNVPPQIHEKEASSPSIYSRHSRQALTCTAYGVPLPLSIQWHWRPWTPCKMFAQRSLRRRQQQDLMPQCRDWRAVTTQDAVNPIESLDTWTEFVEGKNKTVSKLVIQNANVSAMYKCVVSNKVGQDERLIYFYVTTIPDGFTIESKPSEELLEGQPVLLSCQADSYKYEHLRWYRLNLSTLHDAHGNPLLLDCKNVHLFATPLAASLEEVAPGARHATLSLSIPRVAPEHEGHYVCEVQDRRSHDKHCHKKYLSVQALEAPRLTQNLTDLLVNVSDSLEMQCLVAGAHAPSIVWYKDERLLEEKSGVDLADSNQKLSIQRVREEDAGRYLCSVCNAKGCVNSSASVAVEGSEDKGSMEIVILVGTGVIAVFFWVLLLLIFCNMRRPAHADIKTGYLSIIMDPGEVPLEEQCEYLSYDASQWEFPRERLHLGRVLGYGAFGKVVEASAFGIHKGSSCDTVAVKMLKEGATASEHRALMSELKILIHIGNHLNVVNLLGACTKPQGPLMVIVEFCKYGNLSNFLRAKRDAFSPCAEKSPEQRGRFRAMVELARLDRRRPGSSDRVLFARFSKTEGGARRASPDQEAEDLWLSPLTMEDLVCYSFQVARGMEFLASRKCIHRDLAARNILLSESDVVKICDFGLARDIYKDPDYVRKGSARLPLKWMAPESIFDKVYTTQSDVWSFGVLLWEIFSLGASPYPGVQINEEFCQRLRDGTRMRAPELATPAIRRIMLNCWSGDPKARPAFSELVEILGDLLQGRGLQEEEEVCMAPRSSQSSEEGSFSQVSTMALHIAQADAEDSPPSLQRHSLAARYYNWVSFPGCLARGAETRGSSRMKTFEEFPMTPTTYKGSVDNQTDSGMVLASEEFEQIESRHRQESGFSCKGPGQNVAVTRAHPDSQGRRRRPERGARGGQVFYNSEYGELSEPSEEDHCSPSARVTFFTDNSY
# Description: as §1, §2, §3, §4, §5
# RON = molecular target: T3, RON (Homo sapiens, UniProt Q04912); test: as above; settings: recombinant human kinase
# T3 construct: purchased Carna Biosciences Inc. 08-152
# T3 sequence (Q04912 25-1400): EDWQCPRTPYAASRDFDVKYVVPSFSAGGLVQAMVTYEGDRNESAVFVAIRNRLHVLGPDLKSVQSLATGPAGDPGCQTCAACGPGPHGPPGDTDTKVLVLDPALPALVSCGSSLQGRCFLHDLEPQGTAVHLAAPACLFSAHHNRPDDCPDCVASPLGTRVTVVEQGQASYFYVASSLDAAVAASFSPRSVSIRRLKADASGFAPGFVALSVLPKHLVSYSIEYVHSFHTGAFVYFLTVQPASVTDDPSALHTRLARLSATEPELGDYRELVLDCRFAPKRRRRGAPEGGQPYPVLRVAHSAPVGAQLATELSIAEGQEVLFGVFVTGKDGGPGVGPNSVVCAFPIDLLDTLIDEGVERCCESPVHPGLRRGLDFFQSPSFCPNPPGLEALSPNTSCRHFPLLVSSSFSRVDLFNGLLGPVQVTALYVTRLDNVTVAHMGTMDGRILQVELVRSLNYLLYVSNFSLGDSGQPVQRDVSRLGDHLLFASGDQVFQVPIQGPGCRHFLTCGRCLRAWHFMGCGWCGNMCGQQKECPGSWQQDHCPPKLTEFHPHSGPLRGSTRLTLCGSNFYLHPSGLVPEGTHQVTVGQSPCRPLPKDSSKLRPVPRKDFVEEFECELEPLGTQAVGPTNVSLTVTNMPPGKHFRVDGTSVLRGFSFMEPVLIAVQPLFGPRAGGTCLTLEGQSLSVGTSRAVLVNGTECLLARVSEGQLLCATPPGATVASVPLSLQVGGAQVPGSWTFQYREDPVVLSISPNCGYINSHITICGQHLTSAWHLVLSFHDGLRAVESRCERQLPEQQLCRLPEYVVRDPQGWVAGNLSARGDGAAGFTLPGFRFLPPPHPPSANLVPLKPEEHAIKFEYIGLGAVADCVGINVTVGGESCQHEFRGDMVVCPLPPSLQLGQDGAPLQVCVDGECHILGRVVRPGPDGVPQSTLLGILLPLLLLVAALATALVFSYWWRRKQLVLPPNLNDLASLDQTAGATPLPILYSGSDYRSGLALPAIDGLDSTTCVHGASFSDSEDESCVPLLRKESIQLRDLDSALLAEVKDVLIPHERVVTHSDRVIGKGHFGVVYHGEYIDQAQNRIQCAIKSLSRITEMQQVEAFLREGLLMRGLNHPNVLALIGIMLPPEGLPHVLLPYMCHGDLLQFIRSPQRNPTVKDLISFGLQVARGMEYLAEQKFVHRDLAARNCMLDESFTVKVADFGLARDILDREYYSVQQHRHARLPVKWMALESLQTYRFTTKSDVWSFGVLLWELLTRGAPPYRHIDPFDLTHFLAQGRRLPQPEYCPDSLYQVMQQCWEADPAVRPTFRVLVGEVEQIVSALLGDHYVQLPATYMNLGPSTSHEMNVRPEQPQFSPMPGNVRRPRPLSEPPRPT
# Description: as §1, §2, §3, §4, §5
# [1] = molecular target: T4, VEGFR-2 tyrosine kinase (His6-VEGFR-2, cytoplasmic domain) (Homo sapiens, UniProt P35968); test: Inhibitory activity on VEGFR-2 tyrosine kinase (HTRF); settings: biotin-poly(GT) substrate
# T4 construct: made in house; host or cells: Sf9 insect cells (baculovirus, pFastBac-HT)
# T4 sequence (P35968 786-1356 limits assumed): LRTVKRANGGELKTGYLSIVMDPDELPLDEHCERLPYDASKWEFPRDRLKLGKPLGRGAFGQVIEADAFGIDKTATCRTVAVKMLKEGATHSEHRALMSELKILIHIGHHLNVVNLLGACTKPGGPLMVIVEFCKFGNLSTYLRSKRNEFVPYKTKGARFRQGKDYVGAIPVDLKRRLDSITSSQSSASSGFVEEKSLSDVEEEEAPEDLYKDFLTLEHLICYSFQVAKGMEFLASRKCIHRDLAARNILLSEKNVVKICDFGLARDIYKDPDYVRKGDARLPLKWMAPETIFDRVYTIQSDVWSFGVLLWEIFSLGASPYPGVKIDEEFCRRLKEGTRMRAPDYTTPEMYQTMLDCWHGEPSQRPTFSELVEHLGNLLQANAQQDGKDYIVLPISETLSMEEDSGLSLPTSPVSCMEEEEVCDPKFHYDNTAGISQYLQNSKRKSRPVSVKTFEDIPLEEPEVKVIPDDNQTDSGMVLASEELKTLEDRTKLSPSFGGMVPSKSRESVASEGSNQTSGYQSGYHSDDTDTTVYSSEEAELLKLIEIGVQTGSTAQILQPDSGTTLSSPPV
# From the text: Cytoplasmic domain of VEGFR-2 (Genbank Accession No. L04947) is a 1.7 kb DNA fragment starting from lysine 791 and contains a stop codon, as described by Tarman et al. (Oncogene, 6(9), 1677-1683, 1991). This DNA fragment was isolated from a human placental cDNA library (obtained from Clontech Laboratories, Inc.) with two primers (obtained from TaKaRa Ex Taq™ Kit, TaKaRa) using a PCR method. This DNA fragment was cloned into a baculovirus transplace vector (pFastBac™-HT (obtained from GIBCO BRL)), to obtain a recombinant construct. An insect cell (Spodoptera frugiperda 9 (Sf9)) was transfected with it, and a VEGFR-2 recombinant baculovirus solution was prepared (preparation of the recombinant baculovirus can be found in a standard textbook (Bac-to-Bac Baculovirus Expression System (GIBCO BRL)).
# To Sf9 cells (3×10^8 cells) suspended in a SF-90011 culture medium containing 2% FBS (obtained from Invitrogen Corp.), the above mentioned recombinant VEGFR-2 baculovirus solution (4 ml) was added and incubated with shaking at 27° C. for 48 hours. The recombinant VEGFR-2 baculovirus-infected cell culture was centrifuged at 4° C. at 1000 rpm for 5 minutes, and the supernatant was removed. The precipitated infected cells were suspended in 80 ml of ice-cold PBS, the suspension was centrifuged at 4° C. at 1000 rpm for 5 minutes, and the supernatant was removed. The precipitated infected cells were suspended in 40 ml of ice-cold Lysis Buffer (50 mM Tris-HCl (pH 8.5), 5 mM 2-mercaptoethanol, 100 mM KCl, 1 mM PMSF, and 1% (v/v) NP-40). This suspension was centrifuged at 4° C. at 12,000 rpm for 30 min to obtain a supernatant.
# This supernatant was added to a Ni-NTA agarose column (3 ml, obtained from Qiagen) which had been equilibrated with 30 ml of Buffer A (20 mM Tris-HCl (pH 8.5), 5 mM 2-mercaptoethanol, 500 mM KCl, 20 mM imidazole, and 10% (v/v) glycerol). This column was washed sequentially with 30 ml of Buffer A, 6 ml of Buffer B (20 mM Tris-HCl (pH 8.5), 5 mM 2-mercaptoethanol, 1M KCl, and 10% (v/v) glycerol), and 6 ml of Buffer A. Then, to this column, 6 ml of Buffer C (20 mM Tris-HCl (pH 8.5), 5 mM 2-mercaptoethanol, 100 mM KCl, 100 mM imidazole, and 10% (v/v) glycerol) was added to obtain an eluate. This eluate was poured into a dialysis membrane (obtained from Spectrum Laboratories) and dialyzed with 1 liter of dialysis buffer (20 mM Tris-HCl (pH 7.5), 10% (v/v) glycerol, 1 mM DTT, 0.1 mM Na3VO4, 0.1 mM EGTA) at 4° C. overnight and stored at −80° C. until use. After the dialysis, a part of the eluate was subjected to a SDS electrophoresis, and the recombinant protein (His 6-VEGFR-2, a cytoplasmic domain of VEGFR-2 fused with 6 histidine residues on its N-terminus) detected at about 100 kDa Mw in Coomassie Brilliant Blue staining was subjected to protein quantification using BSA (obtained from Sigma Co. Ltd.) as a standard.
# In each well of a 96-well round bottom plate (obtained from NUNC, product number 163320), 10 μl of a solution for kinase reaction (200 mM Hepes (pH 7.4), 80 mM MgCl2, 16 mM MnCl2, 2 mM Na3VO4), 250 ng of biotin-conjugated poly (Glu 4: Tyr 1) (biotin-poly (GT) obtained from Nihon Schering K.K.) (6 μl of 1/15 diluted solution with distilled water), 15 ng of His6-VEGFR-2 (10 μl of a 1/240 diluted solution with a 0.4% BSA solution), and a test substance solution in dimethyl sulfoxide (4 μl of 1/100 dilution with 0.1% BSA) were added to make a total volume of 30 μl. To them, 10 μl of 4 μM ATP (obtained from Sigma Co. Ltd.) diluted with distilled water was added, and the resultant was incubated for 10 minutes at 30° C., followed by addition of 10 μl of 500 mM EDTA (pH 8.0) (obtained from Wako Pure Chemical Industries, Ltd.) to obtain a kinase reaction solution.
# To detect tyrosine-phosphorylated biotin-poly (GT), the Homogenous Time-Resolved Fluorescence (HTRF) method was used (Analytical Biochemistry, 269, 94-104, 1999). […]
# T1 sequence (P17948 27-1338): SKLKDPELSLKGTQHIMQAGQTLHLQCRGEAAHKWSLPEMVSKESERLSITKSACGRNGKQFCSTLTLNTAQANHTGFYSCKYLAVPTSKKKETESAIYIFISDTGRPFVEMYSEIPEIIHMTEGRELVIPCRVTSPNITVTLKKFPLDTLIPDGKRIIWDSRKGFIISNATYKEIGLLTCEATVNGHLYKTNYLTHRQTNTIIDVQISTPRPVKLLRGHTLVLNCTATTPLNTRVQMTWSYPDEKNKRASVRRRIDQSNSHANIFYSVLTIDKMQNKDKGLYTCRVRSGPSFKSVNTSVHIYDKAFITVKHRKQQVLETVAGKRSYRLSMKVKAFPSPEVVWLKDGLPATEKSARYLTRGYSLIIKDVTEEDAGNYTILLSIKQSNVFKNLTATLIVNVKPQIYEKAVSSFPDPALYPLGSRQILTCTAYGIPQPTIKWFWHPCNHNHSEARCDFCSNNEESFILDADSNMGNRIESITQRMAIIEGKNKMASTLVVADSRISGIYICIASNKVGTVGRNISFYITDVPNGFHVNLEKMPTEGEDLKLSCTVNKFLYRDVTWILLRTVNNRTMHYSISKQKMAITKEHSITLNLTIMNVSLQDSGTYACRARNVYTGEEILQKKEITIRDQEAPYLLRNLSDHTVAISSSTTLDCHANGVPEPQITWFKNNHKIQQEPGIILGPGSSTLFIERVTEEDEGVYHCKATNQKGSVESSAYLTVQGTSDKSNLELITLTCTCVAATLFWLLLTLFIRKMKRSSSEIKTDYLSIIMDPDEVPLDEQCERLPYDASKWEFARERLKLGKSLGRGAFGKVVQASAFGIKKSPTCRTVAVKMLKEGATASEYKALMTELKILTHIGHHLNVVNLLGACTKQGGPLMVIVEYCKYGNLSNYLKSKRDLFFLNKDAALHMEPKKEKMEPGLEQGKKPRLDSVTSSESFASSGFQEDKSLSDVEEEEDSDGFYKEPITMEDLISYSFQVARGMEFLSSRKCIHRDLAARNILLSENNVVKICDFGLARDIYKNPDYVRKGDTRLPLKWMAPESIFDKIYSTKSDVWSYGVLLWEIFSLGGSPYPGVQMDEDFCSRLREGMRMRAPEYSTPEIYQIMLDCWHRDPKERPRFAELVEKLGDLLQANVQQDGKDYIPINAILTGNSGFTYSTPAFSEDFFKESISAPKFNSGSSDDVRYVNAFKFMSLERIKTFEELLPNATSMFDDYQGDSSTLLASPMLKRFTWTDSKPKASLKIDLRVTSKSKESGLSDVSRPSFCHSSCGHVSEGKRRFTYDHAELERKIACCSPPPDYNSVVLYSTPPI
IC50 (VEGFR-1 (FLT 1)) [nM],IC50 (VEGFR-3 (FLT 4)) [nM],IC50 (RON) [nM],IC50 [1] [nM],Compound
21,22,2.4,100,"CN1CCN(C2CCN(C(=O)Nc3cc(Oc4cc(F)c(NC(=O)C5(C(=O)Nc6ccc(F)cc6)CC5)cc4F)ccn3)CC2)CC1 [N-(2,5-Difluoro-4-{[2-({[4-(4-methylpiperazin-1-yl)piperidin-1-yl]carbonyl}amino)pyridin-4-yl]oxy}phenyl)-N′-(4-fluorophenyl)cyclopropane-1,1-dicarboxamide]"
71,36,26,59,"O=C(Nc1cc(Oc2ccc(NC(=O)C3(C(=O)Nc4ccc(F)cc4)CC3)c(F)c2)ccn1)N1CCC1 [N-[4-({2-[(Azetidin-1-ylcarbonyl)amino]pyridin-4-yl}oxy)-2-fluorophenyl]-N′-(4-fluorophenyl)cyclopropane-1,1-dicarboxamide]"
26,10,4.6,9.5,"O=C(Nc1cc(Oc2cc(F)c(NC(=O)C3(C(=O)Nc4ccc(F)cc4)CC3)cc2F)ccn1)N1CC(O)C1 [N-{2,5-Difluoro-4-[(2-{[(3-hydroxyazetidin-1-yl)carbonyl]amino}pyridin-4-yl)oxy]phenyl}-N′-(4-fluorophenyl)cyclopropane-1,1-dicarboxamide]"
14,6.2,2.6,10,"O=C(Nc1cc(Oc2cc(F)c(NC(=O)C3(C(=O)Nc4ccc(F)cc4)CC3)cc2F)ccn1)N1CC(CO)C1 [N-(2,5-Difluoro-4-{[2-({[3-(hydroxymethyl)azetidin-1-yl]carbonyl}amino)pyridin-4-yl]oxy}phenyl)-N′-(4-fluorophenyl)cyclopropane-1,1-dicarboxamide]"
12,11,1.8,95,"CN1CCC(N(C)C(=O)Nc2cc(Oc3cc(F)c(NC(=O)C4(C(=O)Nc5ccc(F)cc5)CC4)cc3F)ccn2)CC1 [N-(2,5-Difluoro-4-{[2-({[methyl(1-methylpiperidin-4-yl)amino]carbonyl}amino)pyridin-4-yl]oxy}phenyl)-N′-(4-fluorophenyl)cyclopropane-1,1-dicarboxamide]"

# Source: patent US20090227556A1, “RECEPTOR TYROSINE KINASE INHIBITORS COMPRISING PYRIDINE AND PYRIMIDINE DERIVATIVES” (Eisai R&D Management Co., Ltd., priority 2008, published 2009)
